Reference: patent US12714685B2, “Drug combination and its use in the treatment of cancer” (priority 2020, dated 2026)
Read-outs that look alike come from different tables or passages of the source.

Tests used:
LN-18 cells = experiment: In vitro cytotoxicity (LDH release assay) on LN-18 glioma cells; settings: for IC50: Homo sapiens, LN-18, 24 h
Excerpt: (§1) Two colorimetric assays were established to monitor cytotoxicity in response to the tested drugs, one measuring the release of lactate dehydrogenase (LDH) from cells, a well-established marker for cell toxicity, and the other measuring the activity of mitochondrial […], an indicator of cell viability, by the reduction of the soluble tetrazolium dye MTT. […] Cells were also monitored by direct microscopic observation. Controls included cells treated with medium without drug and cells treated with Camptothesin, a known cytotoxic agent, as positive control. Incubation with drug concentrations was carried out for 24 hours at 37° C.
(§2) DAB was tested in vitro under ideal conditions in absence of any competing physiological amino acid allowing low concentrations of 0.5, 1, 2, 3, 4, 5, 6, 8, 12, and 16 mM.
(§3) Prazosin was tested at concentrations of 0.1, 0.5, 1, 2, 5, 10, 20, 30 and 50 μM.
DAB was used at concentrations of 1, 2 and 4 mM. Each of these concentrations was tested alone or in combination with 1, 2 or 4 μM of Prazosin, i.e. the combinations tested were the following: • 1 mM DAB+1 μM Prazosin • 1 mM DAB+2 μM Prazosin • 1 mM DAB+4 μM Prazosin • 2 mM DAB+1 μM Prazosin • 2 mM DAB+2 μM Prazosin • 2 mM DAB+4 μM Prazosin • 4 mM DAB+1 μM Prazosin • 4 mM DAB+2 μM Prazosin • 4 mM DAB+4 μM Prazosin

HMC3 cells = experiment: In vitro cytotoxicity (LDH release assay) on non-malignant HMC3 cells; assay type: cell-based, human; settings: 24 hours at 37° C.
Excerpt: as §1, §2, §3

glioblastoma = settings: mouse xenografts; cited from earlier work
human glioma cells = settings: cited from earlier work
[1] = two clinical studies, small patient series; cited from earlier work
[2] = Solubility in aqueous media

With `COc1cc2nc(N3CCN(C(=O)c4ccco4)CC3)nc(N)c2cc1OC` [Prazosin] the “cytotoxic effect against glioma cell line LN-18 (in words)” value (LN-18 cells) was “strong cytotoxic effect”, the IC50 (LN-18 cells; read-out: IC50, cytotoxic effect against glioma LN-18 line) was 0.0034 mM and the “IC50 against non-malignant HMC3 cells” value (HMC3 cells) was “no IC50 could be determined”. The “toxicity towards non-malignant HMC3 cells (in words)” value (HMC3 cells) was “little cytotoxicity” and the glioblastoma growth (glioblastoma) was “inhibit glioblastoma growth”.
For `NCC[C@H](N)C(=O)O` [DAB, L-2,4 diaminobutyric acid], the “cytotoxic effect against glioma cell line LN-18 (in words)” value (LN-18 cells; 24 hours at 37° C.) was “strong cytotoxic effect”, the IC50 (LN-18 cells; read-out: IC50, cytotoxic effect against glioma cell line LN-18) was 3.8 mM and the “IC50 against non-malignant HMC3 cells” value (HMC3 cells) was “no IC50 could be determined”. For the same compound, the “toxicity towards non-malignant HMC3 cells (in words)” value (HMC3 cells) was “weak toxicity”, the “antitumoral activity in vitro” value (human glioma cells) was “antitumoral activity” and the clinical benefit [1] was “failed to demonstrate significant clinical benefit”. The “solubility in aqueous media” value [2] was “soluble”.
